Source: US10479780B2, “Aminopyrazole derivatives” (Chugai Seiyaku Kabushiki Kaisha, priority 2015, dated 2019)

Columns and labels:
Type in all cases: biochemical
human Yes1 enzyme = biological target: T1, human Yes1 enzyme (Homo sapiens, UniProt P07947); assay: Yes1 enzyme inhibitory activity (time-resolved fluorometry, biotinylated peptide phosphorylation); details: read-out: YES_IC50
T1 construct: made in house
Procedure, shortened: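 Inhibition was expressed against a compound-free control to give IC50, using TR-FRET read-out (Eu-cryptate anti-pTyr antibody, streptavidin-XL665).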

human Src enzyme = biological target: T2, human Src enzyme (Homo sapiens, UniProt P12931); assay: Src enzyme inhibitory activity (time-resolved fluorometry, biotinylated peptide phosphorylation); details: read-out: SRC_IC50
T2 construct: purchased Carna Biosciences, Inc. 08-173
T2 sequence (P12931 whole entry): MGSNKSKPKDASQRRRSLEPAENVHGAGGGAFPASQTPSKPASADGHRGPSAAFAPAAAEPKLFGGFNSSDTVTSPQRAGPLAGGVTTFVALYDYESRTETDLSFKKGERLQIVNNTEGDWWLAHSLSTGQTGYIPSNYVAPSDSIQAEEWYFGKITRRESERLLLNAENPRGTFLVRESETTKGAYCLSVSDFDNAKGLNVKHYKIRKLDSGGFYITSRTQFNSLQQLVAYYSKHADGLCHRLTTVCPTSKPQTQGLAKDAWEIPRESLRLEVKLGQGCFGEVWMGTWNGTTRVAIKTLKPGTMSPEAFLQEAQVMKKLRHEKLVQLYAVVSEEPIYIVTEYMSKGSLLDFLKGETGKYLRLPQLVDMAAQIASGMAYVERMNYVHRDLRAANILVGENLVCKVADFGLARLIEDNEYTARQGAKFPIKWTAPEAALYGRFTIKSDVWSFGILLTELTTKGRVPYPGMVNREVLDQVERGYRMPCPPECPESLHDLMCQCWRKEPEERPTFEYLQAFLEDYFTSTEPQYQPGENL
Procedure, shortened: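 Compounds were tested for blocking tyrosine phosphorylation of a biotinylated peptide substrate by recombinant human Src. Phosphorylated product was quantified by time-resolved fluorometry using europium cryptate and XL665 conjugates, and IC50 was calculated against the compound-free control.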

human Lck enzyme = biological target: T3, human Lck enzyme (Homo sapiens, UniProt P06239); assay: Lck enzyme inhibitory activity (time-resolved fluorometry, biotinylated peptide phosphorylation); details: read-out: LCK_IC50
T3 construct: purchased Carna Biosciences, Inc. 08-170
T3 sequence (P06239 whole entry): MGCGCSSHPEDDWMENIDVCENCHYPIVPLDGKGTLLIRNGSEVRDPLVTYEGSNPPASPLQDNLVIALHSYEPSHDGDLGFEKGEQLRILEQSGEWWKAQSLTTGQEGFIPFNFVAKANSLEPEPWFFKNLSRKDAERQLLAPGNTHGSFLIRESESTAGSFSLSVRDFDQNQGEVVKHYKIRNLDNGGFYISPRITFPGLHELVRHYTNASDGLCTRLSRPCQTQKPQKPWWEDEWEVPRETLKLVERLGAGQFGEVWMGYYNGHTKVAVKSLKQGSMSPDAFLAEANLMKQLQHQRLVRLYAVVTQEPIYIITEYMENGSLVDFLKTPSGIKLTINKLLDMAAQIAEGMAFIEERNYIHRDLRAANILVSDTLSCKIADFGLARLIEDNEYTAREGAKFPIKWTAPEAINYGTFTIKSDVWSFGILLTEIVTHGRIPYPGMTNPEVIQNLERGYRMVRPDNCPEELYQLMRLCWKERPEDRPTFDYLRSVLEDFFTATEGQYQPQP
Procedure, shortened: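 Readout pairs a europium cryptate-labelled anti-phosphotyrosine antibody with XL665-streptavidin, measured by time-resolved fluorescence. IC50 derived from percent inhibition against untreated controls.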

T1 sequence (P07947 whole entry): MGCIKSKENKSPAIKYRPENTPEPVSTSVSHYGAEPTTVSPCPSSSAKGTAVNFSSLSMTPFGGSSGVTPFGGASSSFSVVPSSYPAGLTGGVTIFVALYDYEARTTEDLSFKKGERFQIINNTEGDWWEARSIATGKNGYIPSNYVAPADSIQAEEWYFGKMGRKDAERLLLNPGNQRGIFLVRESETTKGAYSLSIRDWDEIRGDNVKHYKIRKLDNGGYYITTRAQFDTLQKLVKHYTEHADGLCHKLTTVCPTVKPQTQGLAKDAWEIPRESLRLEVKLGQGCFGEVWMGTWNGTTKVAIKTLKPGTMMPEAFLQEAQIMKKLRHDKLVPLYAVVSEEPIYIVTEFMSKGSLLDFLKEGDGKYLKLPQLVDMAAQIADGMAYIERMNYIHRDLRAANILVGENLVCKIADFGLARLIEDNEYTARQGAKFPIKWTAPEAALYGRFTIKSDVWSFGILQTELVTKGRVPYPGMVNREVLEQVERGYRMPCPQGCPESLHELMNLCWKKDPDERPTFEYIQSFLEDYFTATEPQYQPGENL

| Compound | IC50 (human Yes1 enzyme) | IC50 (human Src enzyme) | IC50 (human Lck enzyme) |
| --- | --- | --- | --- |
| Cc1cc(Oc2c(F)cccc2F)ncc1-n1ncc(C(=O)c2cc3cc(OCC(F)F)c(NS(=O)(=O)C4CCOCC4)cc3[nH]2)c1N [Example 5-1-319, N-[2-[5-amino-1-[6-(2,6-difluorophenoxy)-4-methylpyridin-3-yl]pyrazole-4-carbonyl]-5-(2,2-difluoroethoxy)-1H-indol-6-yl]oxane-4-sulfonamide] | 2.8 nM | 88 nM | 18 nM |
| Cc1cc(Oc2c(F)cccc2F)ncc1-n1ncc(C(=O)c2cc3cc(SC(F)F)c(NS(=O)(=O)CCCF)cc3[nH]2)c1N [Example 5-1-320, N-[2-[5-amino-1-[6-(2,6-difluorophenoxy)-4-methylpyridin-3-yl]pyrazole-4-carbonyl]-5-(difluoromethylsulfanyl)-1H-indol-6-yl]-3-fluoropropane-1-sulfonamide] | 18 nM | 680 nM | 140 nM |
| Cc1cc(Oc2c(F)cccc2F)ncc1-n1ncc(C(=O)c2cc3cc(OCC(F)F)c(N4CC(C)(C)NS4(=O)=O)cc3[nH]2)c1N [Example 5-1-321, [5-amino-1-[6-(2,6-difluorophenoxy)-4-methylpyridin-3-yl]pyrazol-4-yl]-[5-(2,2-difluoroethoxy)-6-(4,4-dimethyl-1,1-dioxo-1,2,5-thiadiazolidin-2-yl)-1H-indol-2-yl]methanone] | 5.8 nM | 130 nM | 34 nM |
| Cc1cc(Oc2ccccc2F)ccc1-n1ncc(C(=O)c2cc3cc(OCC(F)F)c(N4CC(C)(C)NS4(=O)=O)cc3[nH]2)c1N [Example 5-1-322, [5-amino-1-[4-(2-fluorophenoxy)-2-methylphenyl]pyrazol-4-yl]-[5-(2,2-difluoroethoxy)-6-(4,4-dimethyl-1,1-dioxo-1,2,5-thiadiazolidin-2-yl)-1H-indol-2-yl]methanone] | 4.1 nM | 70 nM | 22 nM |
| Cc1cc(Oc2ccccc2F)ccc1-n1ncc(C(=O)c2cc3cc(OCC(F)F)c(N4CC5(CCCC5)NS4(=O)=O)cc3[nH]2)c1N [Example 5-1-323, [5-amino-1-[4-(2-fluorophenoxy)-2-methylphenyl]pyrazol-4-yl]-[5-(2,2-difluoroethoxy)-6-(2,2-dioxo-2λ6-thia-1,3-diazaspiro[4.4]nonan-3-yl)-1H-indol-2-yl] methanone] | 9.1 nM | 230 nM | 40 nM |
| Cc1cc(Oc2c(F)cccc2F)ncc1-n1ncc(C(=O)c2cc3cc(SC(F)F)c(N4C(=O)NC(C)(C)C4=O)cc3[nH]2)c1N [Example 5-1-324, 3-[2-[5-amino-1-[6-(2,6-difluorophenoxy)-4-methylpyridin-3-yl]pyrazole-4-carbonyl]-5-(difluoromethylsulfanyl)-1H-indol-6-yl]-6,5-dimethylimidazolidine-2,4-dione] | 10 nM | 230 nM | 19 nM |
| Cc1cc(Oc2ccccc2F)ccc1-n1ncc(C(=O)c2cc3cc(OCC(F)F)c(NS(=O)(=O)C4CCOCC4)cc3[nH]2)c1N [Example 5-1-325, N-[2-[5-amino-1-[4-(2-fluorophenoxy)-2-methylphenyl]pyrazole-4-carbonyl]-5-(2,2-difluoroethoxy)-1H-indol-6-yl]oxane-4-sulfonamide] | 1.6 nM | 32 nM | 18 nM |
| Cc1cc(Oc2ccccc2F)ncc1-n1ncc(C(=O)c2cc3cc(OCC(F)F)c(NS(=O)(=O)C4CCOCC4)cc3[nH]2)c1N [Example 5-1-326, N-[2-[5-amino-1-[6-(2-fluorophenoxy)-4-methylpyridin-3-yl]pyrazole-4-carbonyl]-5-(2,2-difluoroethoxy)-1H-indol-6-yl]oxane-4-sulfonamide] | 0.85 nM | 54 nM | 25 nM |
| COc1cccc(S(=O)(=O)Nc2cc3[nH]c(C(=O)c4cnn(-c5cnc(Oc6c(F)cccc6F)cc5C)c4N)cc3cc2OCC(F)F)c1 [Example 5-1-327, N-[2-[5-amino-1-[6-(2,6-difluorophenoxy)-4-methylpyridin-3-yl]pyrazole-4-carbonyl]-5-(2,2-difluoroethoxy)-1H-indol-6-yl]-3-methoxybenzenesulfonamide] | 7.3 nM | 920 nM | 270 nM |
| Cc1cc(Oc2c(F)cccc2F)ncc1-n1ncc(C(=O)c2cc3cc(OCC(F)F)c(NS(=O)(=O)c4ccccc4Cl)cc3[nH]2)c1N [Example 5-1-328, N-[2-[5-amino-1-[6-(2,6-difluorophenoxy)-4-methylpyridin-3-yl]pyrazole-4-carbonyl]-5-(2,2-difluoroethoxy)-1H-indol-6-yl]-2-chlorobenzenesulfonamide] | 14 nM | 890 nM | 230 nM |
| COc1ccccc1S(=O)(=O)Nc1cc2[nH]c(C(=O)c3cnn(-c4cnc(Oc5c(F)cccc5F)cc4C)c3N)cc2cc1OCC(F)F [Example 5-1-329, N-[2-[5-amino-1-[6-(2,6-difluorophenoxy)-4-methylpyridin-3-yl]pyrazole-4-carbonyl]-5-(2,2-difluoroethoxy)-1H-indol-6-yl]-2-methoxybenzenesulfonamide] | 9 nM | 720 nM | 150 nM |
| Cc1cc(Oc2c(F)cccc2F)ncc1-n1ncc(C(=O)c2cc3cc(OCC(F)F)c(NS(=O)(=O)c4cc(F)cc(F)c4)cc3[nH]2)c1N [Example 5-1-330, N-[2-[5-amino-1-[6-(2,6-difluorophenoxy)-4-methylpyridin-3-yl]pyrazole-4-carbonyl]-5-(2,2-drfluoroethoxy)-1H-indol-6-yl]-3,5-difluorobenzenesulfonamide] | 11 nM | 700 nM | 200 nM |
| COc1ccc(Cl)c(S(=O)(=O)Nc2cc3[nH]c(C(=O)c4cnn(-c5ccc(Oc6ccccc6F)cc5C)c4N)cc3cc2OCC(F)F)c1 [Example 5-1-331, N-[2-[5-amino-1-[4-(2-fluorophenoxy)-2-methylphenyl]pyrazole-4-carbonyl]-5-(2,2-difluoroethoxy)-1H-indol-6-yl]-2-chloro-5-methoxybenzenesulfonamide] | 7 nM | 330 nM | 180 nM |
| Cc1cc(Oc2c(F)cccc2F)ncc1-n1ncc(C(=O)c2cc3cc(OCC(F)F)c(N4C(=O)NC5(CCNCC5)C4=O)cc3[nH]2)c1N [Example 5-1-332, 3-[2-[5-amino-1-[6-(2,6-difluorophenoxy)-4-methylpyridin-3-yl]pyrazole-4-carbonyl]-5-(2,2-difluoroethoxy)-1H-indol-6-yl]-1,3,8-triazaspiro[4.5]decane-2,4-dione] | 0.79 nM | 12 nM | 2.5 nM |
| Cc1cc2cc(C(=O)c3cnn(-c4cnc(Oc5ccccc5F)cc4C)c3N)[nH]c2cc1NS(=O)(=O)C1CCOCC1 [Example 5-1-333, N-[2-[5-amino-1-[6-(2-fluorophenoxy)-4-methylpyridin-3-yl]pyrazole-4-carbonyl]-5-methyl-1H-indol-6-yl]oxane-4-sulfonamide] | 2 nM | 140 nM | 19 nM |
| Cc1cc2cc(C(=O)c3cnn(-c4cnc(Oc5ccccc5F)cc4C)c3N)[nH]c2cc1N1C(=O)NC(C)(C)C1=O [Example 5-1-334, 3-[2-[5-amino-1-[6-(2-fluorophenoxy)-4-methylpyridin-3-yl]pyrazole-4-carbonyl]-5-methyl-1H-indol-6-yl]-5,5-dimethylimidazolidine-2,4-dione] | 1.3 nM | 41 nM | 4 nM |
| Cc1cc(-n2ncc(C(=O)c3cc4cc(OC5CCN(C6CCCC6)CC5)c(-c5ccccc5C)cc4[nH]3)c2N)ccc1Oc1ccccc1F [Example 5-1-335, [5-amino-1-[4-(2-fluorophenoxy)-3-methylphenyl]pyrazol-4-yl]-[5-(1-cyclopentylpiperidin-4-yl)oxy-6-(2-methylphenyl)-1H-indol-2-yl]methanone] | 2.7 nM | 1700 nM | 120 nM |
| Cc1ccccc1-c1cc2[nH]c(C(=O)c3cnn(-c4cnc(Oc5c(F)cccc5F)cc4C)c3N)cc2cc1OC1CCN(C2CCCC2)CC1 [Example 5-1-337, [5-amino-1-[6-(2,6-difluorophenoxy)-4-methylpyridin-3-yl]pyrazol-4-yl]-[5-(1-cyclopentylpiperidin-4-yl)oxy-6-(2-methylphenyl)-1H-indol-2-yl]methanone] | 2.3 nM | 120 nM | 18 nM |
| Cc1ccccc1-c1cc2[nH]c(C(=O)c3cnn(-c4cnc(Oc5c(F)cccc5F)cc4C)c3N)cc2cc1OC1CCN(C2CS(=O)(=O)C2)CC1 [Example 5-1-338, [5-amino-1-[6-(2,6-difluorophenoxy)-4-methylpyridin-3-yl]pyrazol-4-yl]-[5-[1-(1,1-dioxothietan-3-yl)piperidin-4-yl]oxy-6-(2-methylphenyl)-1H-indol-2-yl]methanone] | 3 nM | 180 nM | 30 nM |
| Cc1cc(Oc2ccccc2F)ncc1-n1ncc(C(=O)c2cc3cc(SC(F)F)c(NS(=O)(=O)CCCF)cc3[nH]2)c1N [Example 5-1-339, N-[2-[5-amino-1-[6-(2-fluorophenoxy)-4-methylpyridin-3-yl]pyrazole-4-carbonyl]-5-(difluoromethylsulfanyl)-1H-indol-6-yl]-3-fluoropropane-1-sulfonamide] | 5.7 nM | 540 nM | 74 nM |
| Cc1cc(Oc2ccccc2F)ccc1-n1ncc(C(=O)c2cc3cc(OC(F)F)c(N4CC(C)(C)NS4(=O)=O)cc3[nH]2)c1N [Example 5-1-340, [5-amino-1-[4-(2-fluorophenoxy)-2-methylphenyl]pyrazol-4-yl]-[5-(difluoromethoxy)-6-(4,4-dimethyl-1,1-dioxo-1,2,5-thiadiazolidin-2-yl)-1H-indol-2-yl]methanone] | 2.1 nM | 130 nM | 20 nM |
